Where two headings read alike, the source gives them in different places.
Legend:
[1] = target: T1, human FXa (Homo sapiens, UniProt P00742); experiment: FXa activity and kinetic/inhibitor assay; assay type: biochemical; settings: for FXa activity: 1–20 μg, vs control, p < 0.05; for IC50 / Kik/Kiv / Kcat / Vmax / Ki: FXa; for inhibition type against FXa: from Kik/Kiv ratio and Lineweaver–Burk plots
T1 construct: purchased Sigma-Aldrich
Method: (§1) To determine the thrombin activity, various concentrations of compounds were treated with 1 U human thrombin in 100 μL of 20 mM Tris-HCl, as previously described. The reaction solutions were incubated for 15 min at 37 °C. After the incubation, 1 mM chromogenic substrate for thrombin (S-2238, HD-Phe-Pip-Arg-p-nitroanilide) was added and incubated for 1 h at 37 °C. Absorbance was measured at 405 nm to determine the enzymatic activity. To determine FXa activity, various concentrations of the compounds were mixed with 1 U human FXa in 20 mM Tris-HCl (pH 7.4) in volume of 100 μL, followed by incubation for 15 min at 37 °C. After adding 1 mM N-benzoyl-Ile-Glu-Gly-Arg-p-nitroanilide, a highly specific chromogenic peptide substrate for FXa, the reaction solutions were incubated for 1 h at 37 °C. The residual activity of FXa was measured at 405 nm and is presented as a percentage of inhibition. To investigate FXIIIa activity, various concentrations of the compounds were mixed with 1 U human FXIIIa in 20 mM Tris-HCl (pH 7.4) in a volume of 100 μL, followed by, incubation for 15 min at 37 °C as previously described. The residual activity of FXIIIa was measured using casein and fibrinogen-HRP, according to the manufacturer’s instructions, and was presented as a percentage of inhibition. The negative control was generated by treatment with only thrombin, FXa, or FXIIIa without treatment with any compound.
(§2) Kinetic assays were performed using PA, IVA, and 4-HA for procoagulant proteases (thrombin and FXa) and fibrinoligase (FXIIIa). The kinetic constants were calculated using Lineweaver–Burk plots based on the initial reaction rates with different concentrations (0.1, 0.5, 1, and 2 mM) of each substrate for thrombin, FXa, and FXIIIa treated with or without the compounds (0.065, 0.13, 0.33, 0.65, and 1.30 mM [1–20 μg]) in a total volume of 100 μL. The Michaelis–Menten constant (Km) and maximal velocity (Vmax) were calculated from the x and y intercepts, respectively. […] The median inhibitory concentration (IC50) was defined as the concentration required to reach a 50% reduction in the activity of the three target factors. The Kik and Kiv inhibition constants were calculated using a previously described method. The inhibition type of the compounds against the three target factors was evaluated according to a previously described inhibition type definition.

[2] = target: T2, human FXIIIa (Homo sapiens, UniProt P00488); experiment: FXIIIa activity and kinetic/inhibitor assay; assay type: biochemical; settings: for FXIIIa activity: 1–20 μg, vs control, p < 0.05; for IC50 / Ki / Kik/Kiv / Kcat / Vmax: FXIIIa; for inhibition type against FXIIIa: from Kik/Kiv ratio and Lineweaver–Burk plots
T2 construct: purchased Sigma-Aldrich
T2 sequence (P00488 39-732 limits assumed): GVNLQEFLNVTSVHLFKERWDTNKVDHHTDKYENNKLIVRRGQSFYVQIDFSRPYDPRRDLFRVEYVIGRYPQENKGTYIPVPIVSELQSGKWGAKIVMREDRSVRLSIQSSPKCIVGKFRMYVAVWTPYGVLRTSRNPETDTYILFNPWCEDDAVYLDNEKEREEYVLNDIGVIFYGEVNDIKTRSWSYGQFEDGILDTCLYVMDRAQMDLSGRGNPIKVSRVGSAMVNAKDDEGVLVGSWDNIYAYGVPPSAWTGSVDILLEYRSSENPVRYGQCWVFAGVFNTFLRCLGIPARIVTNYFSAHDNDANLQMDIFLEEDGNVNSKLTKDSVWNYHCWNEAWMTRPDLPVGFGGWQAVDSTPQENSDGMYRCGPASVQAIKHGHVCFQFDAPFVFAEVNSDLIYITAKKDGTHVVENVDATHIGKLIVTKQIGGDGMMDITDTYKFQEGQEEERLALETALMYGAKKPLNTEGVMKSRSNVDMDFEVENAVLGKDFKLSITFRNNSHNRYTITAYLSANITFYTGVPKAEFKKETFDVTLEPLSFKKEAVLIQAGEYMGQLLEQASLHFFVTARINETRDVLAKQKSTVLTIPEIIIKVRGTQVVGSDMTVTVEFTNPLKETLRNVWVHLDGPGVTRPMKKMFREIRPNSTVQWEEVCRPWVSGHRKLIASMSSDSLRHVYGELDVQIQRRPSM
Method: as §1, §2

[3] = tested on: human plasma; experiment: Coagulation assay, APTT; assay type: biochemical; settings: for APTT, fold of control / activated partial thromboplastin time (APTT): 100 μg; for activated partial thromboplastin time (APTT): control 39.5 ± 1.5 s, p < 0.01
Method: A coagulation assay was performed to evaluate the prolongation potential of the compounds in blood coagulation by measuring APTT, PT, and TT, as previously described. After pretreatment of the compounds with human plasma for 10 min, APTT, PT, and TT were determined by a coagulometer (Thrombostat 1) manufactured by Behnk Elektronik, Germany.

[4] = tested on: fibrin clot formation (fibrinogen, thrombin, CaCl2); experiment: Fibrin clot assay; assay type: biochemical, Human; settings: 100 μg
Method: The fibrin clot assay, as previously described, was performed to evaluate the improvement in blood circulation by the attenuation of fibrin formation. First, 1.5% fibrinogen, 0.5 U/mL of thrombin, and 5 mM CaCl2 in 20 mM Tris-HCl in a volume of 100 μL were added to different concentrations of compounds or 10–20 IU u-PA as PC 1–2. These prepared fibrin clot mixtures were incubated at 37 °C for 30 min. Each tube of the fibrin clot mixture was photographed, and the density of the clots was measured using the ImageJ 1.46 b image analysis software (National Institutes of Health, Bethesda, MD, USA). Inhibitory activity was calculated as follows:Inhibitory activity (%) = [1 − (density control without sample−density sample)/density control without sample] × 100

[5] = read-out: Kiv (inhibition constant using Vmax)

T1 sequence (P00742 235-488 limits assumed): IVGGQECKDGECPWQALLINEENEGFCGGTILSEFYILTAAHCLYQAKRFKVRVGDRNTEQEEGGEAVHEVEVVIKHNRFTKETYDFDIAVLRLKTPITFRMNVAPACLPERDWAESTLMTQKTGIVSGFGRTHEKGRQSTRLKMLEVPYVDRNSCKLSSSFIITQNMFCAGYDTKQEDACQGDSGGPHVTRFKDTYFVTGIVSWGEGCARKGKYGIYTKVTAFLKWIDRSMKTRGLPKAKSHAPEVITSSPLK
T1 sequence (P00742 41-179 limits assumed): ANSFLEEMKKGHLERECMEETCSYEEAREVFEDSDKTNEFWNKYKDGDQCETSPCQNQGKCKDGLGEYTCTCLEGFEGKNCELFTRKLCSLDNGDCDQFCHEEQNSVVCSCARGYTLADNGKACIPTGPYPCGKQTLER

Row | SMILES | FXa activity [1] | IC50 [1] | Kik/Kiv [1] | Kcat ([1]; compound 0.065 mM (1 μg)) | Vmax ([1]; compound 0.065 mM (1 μg)) | Kcat ([1]; compound 0.13 mM (2 μg)) | Vmax ([1]; compound 0.13 mM (2 μg)) | Kcat ([1]; compound 0.325 mM (5 μg)) | Vmax ([1]; compound 0.325 mM (5 μg)) | Kcat ([1]; compound 0.65 mM (10 μg)) | Vmax ([1]; compound 0.65 mM (10 μg)) | Kcat ([1]; compound 1.3 mM (20 μg)) | Vmax ([1]; compound 1.3 mM (20 μg)) | Ki ([1]; read-out: Ki) | Ki [1, 5] | inhibition type against FXa [1] | FXIIIa activity [2] | IC50 [2] | Ki [2] | Kik/Kiv [2] | further results
1 | O=C(O)c1ccc(O)cc1 [4-HA, 4-hydroxybenzoic acid] | significant reductions | 4010 µM | 5.3 | 22.14 ± 0.22 s⁻¹ | 0.60 ± 0.03 mU/min | 21.77 ± 0.26 s⁻¹ | 0.59 ± 0.02 mU/min | 21.79 ± 0.44 s⁻¹ | 0.59 ± 0.04 mU/min | 21.18 ± 0.42 s⁻¹ | 0.57 ± 0.02 mU/min | 20.22 ± 0.37 s⁻¹ | 0.55 ± 0.02 mU/min | 3990 µM | 109 µM | non-competitive inhibition | significant reductions | 1960 µM | 1960 µM | 6005.6 | Kcat ([2]; compound 0.065 mM (1 μg)): 88.6 ± 0.10 s⁻¹; Vmax ([2]; compound 0.065 mM (1 μg)): 0.142 ± 0.04 mU/min; Kcat ([2]; compound 0.13 mM (2 μg)): 87.7 ± 0.09 s⁻¹; Vmax ([2]; compound 0.13 mM (2 μg)): 0.141 ± 0.04 mU/min; Kcat ([2]; compound 0.325 mM (5 μg)): 77.2 ± 0.05 s⁻¹; Vmax ([2]; compound 0.325 mM (5 μg)): 0.124 ± 0.03 mU/min; Kcat ([2]; compound 0.65 mM (10 μg)): 70.5 ± 0.07 s⁻¹; Vmax ([2]; compound 0.65 mM (10 μg)): 0.113 ± 0.03 mU/min; Kcat ([2]; compound 1.3 mM (20 μg)): 62.0 ± 0.06 s⁻¹; Vmax ([2]; compound 1.3 mM (20 μg)): 0.099 ± 0.04 mU/min; inhibition type against FXIIIa [2]: non-competitive inhibition type; APTT, fold of control [3]: 1.53 fold; activated partial thromboplastin time (APTT) [3]: 60.3 ± 5.6 s; inhibition of fibrin clot formation [4]: 67.1 ± 1.3%
2 | COc1ccc(C(=O)O)cc1O [IVA, isovanillic acid] | significant reductions | 4210 µM | 5.6 | 24.20 ± 0.27 s⁻¹ | 0.66 ± 0.04 mU/min | 22.34 ± 0.41 s⁻¹ | 0.61 ± 0.02 mU/min | 22.23 ± 0.35 s⁻¹ | 0.60 ± 0.03 mU/min | 20.67 ± 0.32 s⁻¹ | 0.56 ± 0.03 mU/min | 18.56 ± 0.30 s⁻¹ | 0.50 ± 0.04 mU/min | 4190 µM | 75 µM | non-competitive inhibition | significant reductions | 1920 µM | 1920 µM | 10.4 | Kcat ([2]; compound 0.065 mM (1 μg)): 89.3 ± 0.09 s⁻¹; Vmax ([2]; compound 0.065 mM (1 μg)): 0.143 ± 0.02 mU/min; Kcat ([2]; compound 0.13 mM (2 μg)): 84.5 ± 0.07 s⁻¹; Vmax ([2]; compound 0.13 mM (2 μg)): 0.135 ± 0.03 mU/min; Kcat ([2]; compound 0.325 mM (5 μg)): 80.5 ± 0.05 s⁻¹; Vmax ([2]; compound 0.325 mM (5 μg)): 0.129 ± 0.04 mU/min; Kcat ([2]; compound 0.65 mM (10 μg)): 80.5 ± 0.09 s⁻¹; Vmax ([2]; compound 0.65 mM (10 μg)): 0.129 ± 0.03 mU/min; Kcat ([2]; compound 1.3 mM (20 μg)): 68.7 ± 0.08 s⁻¹; Vmax ([2]; compound 1.3 mM (20 μg)): 0.110 ± 0.04 mU/min; inhibition type against FXIIIa [2]: non-competitive inhibition type; APTT, dependence on concentration [3]: increased APTT in a concentration-dependent manner; APTT, fold of control [3]: 1.70 fold; activated partial thromboplastin time (APTT) [3]: 67.0 ± 4.0 s; inhibition of fibrin clot formation [4]: 55.6 ± 1.7%
3 | O=C(O)c1ccc(O)c(O)c1 [PA, protocatechuic acid] | significant reductions | 3090 µM | 1.6 | 21.36 ± 0.54 s⁻¹ | 0.58 ± 0.03 mU/min | 17.35 ± 0.48 s⁻¹ | 0.47 ± 0.02 mU/min | 14.67 ± 0.25 s⁻¹ | 0.40 ± 0.02 mU/min | 12.09 ± 0.29 s⁻¹ | 0.33 ± 0.01 mU/min | 11.62 ± 0.31 s⁻¹ | 0.32 ± 0.01 mU/min | 3070 µM | 23 µM | uncompetitive inhibition type | significant reductions | 1640 µM | 1630 µM | 6.1 | Kcat ([2]; compound 0.065 mM (1 μg)): 91.1 ± 0.03 s⁻¹; Vmax ([2]; compound 0.065 mM (1 μg)): 0.146 ± 0.03 mU/min; Kcat ([2]; compound 0.13 mM (2 μg)): 84.4 ± 0.06 s⁻¹; Vmax ([2]; compound 0.13 mM (2 μg)): 0.135 ± 0.02 mU/min; Kcat ([2]; compound 0.325 mM (5 μg)): 80.1 ± 0.05 s⁻¹; Vmax ([2]; compound 0.325 mM (5 μg)): 0.128 ± 0.03 mU/min; Kcat ([2]; compound 0.65 mM (10 μg)): 71.8 ± 0.07 s⁻¹; Vmax ([2]; compound 0.65 mM (10 μg)): 0.115 ± 0.04 mU/min; Kcat ([2]; compound 1.3 mM (20 μg)): 62.5 ± 0.04 s⁻¹; Vmax ([2]; compound 1.3 mM (20 μg)): 0.100 ± 0.02 mU/min; inhibition type against FXIIIa [2]: non-competitive inhibition type; APTT, fold of control [3]: 1.33 fold; activated partial thromboplastin time (APTT) [3]: 52.5 ± 4.4 s; inhibition of fibrin clot formation [4]: 66.9 ± 3.3%

Source: paper PMC9181887, “In Vitro Antithrombotic, Hematological Toxicity, and Inhibitor Studies of Protocatechuic, Isovanillic, and p-Hydroxybenzoic Acids from Maclura tricuspidata (Carr.) Bur” (Molecules, 2022)
